According to patent publication US12692236B2, “Small molecule modulators of sigma-1 and sigma-2 receptors and uses thereof” (Northwestern University, priority 2018, dated 2026):
Read-outs that look alike come from different tables or passages of the source.

How the values were obtained:
sigma-2 receptor = sigma-2 receptor (Homo sapiens, UniProt Q5BJF2); experiment: sigma-2 receptor binding affinity (Ki)
sigma-1 receptor = sigma-1 receptor (Homo sapiens, UniProt Q99720); experiment: sigma-1 receptor binding affinity (Ki)
Sequence of sigma-1 receptor (Q99720 whole entry, species assumed): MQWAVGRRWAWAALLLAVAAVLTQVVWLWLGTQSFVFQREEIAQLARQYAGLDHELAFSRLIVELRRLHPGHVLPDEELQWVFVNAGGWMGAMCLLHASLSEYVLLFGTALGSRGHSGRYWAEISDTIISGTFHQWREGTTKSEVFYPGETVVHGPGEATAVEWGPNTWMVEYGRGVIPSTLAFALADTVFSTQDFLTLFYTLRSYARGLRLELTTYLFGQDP

Sequence of sigma-2 receptor (Q5BJF2 whole entry, species assumed): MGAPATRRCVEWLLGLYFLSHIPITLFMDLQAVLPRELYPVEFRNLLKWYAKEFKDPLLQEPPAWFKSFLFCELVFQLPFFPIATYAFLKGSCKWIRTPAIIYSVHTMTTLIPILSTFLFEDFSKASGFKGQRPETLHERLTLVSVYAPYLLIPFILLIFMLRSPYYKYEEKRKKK

Compound | Ki (sigma-2 receptor; read-out: Ki (nM) Sigma-2) [nM] | Ki (sigma-1 receptor; read-out: Ki (nM) Sigma-1) [nM] | further results
CCCn1nc(C(=O)N(C)C)c2c1CCC(NS(=O)(=O)c1ccc(F)cc1)C2 (stereo not shown) [compound 200629, 5-((4-fluorophenyl)sulfonamido)-N,N-dimethyl-1-propyl-4,5,6,7-tetrahydro-1H-indazole-3-carboxamide] | > 10000 | > 10000 | activity against sigma-2 (in words) (sigma-2 receptor): did not restore the activity; activity against sigma-1 (in words) (sigma-1 receptor): did not restore the activity
O=C(c1nn(-c2ccccc2)c2c1CC(NCc1ccc(F)cc1)CC2)N1CCCCC1 (stereo not shown) [compound 2001685, (5-((4-Fluorobenzyl)amino)-1-phenyl-4,5,6,7-tetrahydro-1H-indazol-3-yl)(piperidin-1-yl)methanone] | > 10000 | 159 | improvement in potency against sigma-1 receptor (sigma-1 receptor; relative to the comparator analog named in the text): over 4 fold
O=C(c1nn(-c2ccccc2)c2c1CC(NCCc1ccc(C(F)(F)F)cc1)CC2)N1CCCCC1 (stereo not shown) [compound 201684, (1-Phenyl-5-((4-(trifluoromethyl)phenethyl)amino)-4,5,6,7-tetrahydro-1H-indazol-3-yl)(piperidin-1-yl)methanone] | > 10000 | 337 | 
CCCn1nc(C(=O)N(C)C)c2c1CCC(NCc1ccc(F)cc1)C2 (stereo not shown) [compound 54121, 5-((4-Fluorobenzyl)amino)-N,N-dimethyl-1-propyl-4,5,6,7-tetrahydro-1H-indazole-3-carboxamide] | 2190 | 1580 | activity against sigma-2 (in words) (sigma-2 receptor): moderate activity; Ki (sigma-2 receptor; read-out: Ki sigma-2): 2100 nM; activity against sigma-1 (in words) (sigma-1 receptor): moderate activity; selectivity sigma-1 versus sigma-2 (in words) (sigma-1 receptor): slightly more selectivity for the sigma-1 receptor; Ki (sigma-1 receptor; read-out: Ki sigma-1): 1500 nM
O=C(c1nn(-c2ccccc2)c2c1CC(NCCc1ccc3c(c1)OCO3)CC2)N1CCCCC1 (stereo not shown) [compound 201679, (5-((2-(Benzo[d][1,3]dioxol-5-yl)ethyl)amino)-1-phenyl-4,5,6,7-tetrahydro-1H-indazol-3-yl)(piperidin-1-yl)methanone] | 349 | 547 | 
O=C(c1c2c(nn1-c1ccccc1)CCC(NCc1ccccc1)C2)N1CCCCC1 (stereo not shown) [compound 201676, (5-(Benzylamino)-2-phenyl-4,5,6,7-tetrahydro-2H-indazol-3-yl)(piperidin-1-yl)methanone] | 139 | 38 | 
O=C(c1c2c(nn1-c1ccccc1)CCC(NCCc1ccncc1)C2)N1CCCCC1 (stereo not shown) [compound 201670, (2-Phenyl-5-((2-(pyridin-4-yl)ethyl)amino)-4,5,6,7-tetrahydro-2H-indazol-3-yl)(piperidin-1-yl)methanone] | 296 | 226 | 
CCCn1nc(C(=O)N2CCCCC2)c2c1CCC(N(C)Cc1ccc(F)cc1)C2 (stereo not shown) [compound 196339, (5-((4-fluorobenzyl)(methyl)amino)-1-propyl-4,5,6,7-tetrahydro-1H-indazol-3-yl)(piperidin-1-yl)methanone] | 19 |  | selectivity of sigma-2 ligands against sigma-1 (in words) (sigma-2 receptor): excellent selectivity
CCCn1nc(C(=O)N2CCCCC2)c2c1CCC(NCCc1ccncc1)C2 (stereo not shown) [compound 200390, Piperidin-1-yl(1-propyl-5-((2-(pyridin-4-yl)ethyl)amino)-4,5,6,7-tetrahydro-1H-indazol-3-yl)methanone] |  |  | activity against sigma-2 (in words) (sigma-2 receptor): eliminated the activity; activity against sigma-1 (in words) (sigma-1 receptor): eliminated the activity
C=Cc1ccc(-n2nc3c(c2C(=O)N2CCCCC2)CC(NCCc2ccccc2)CC3)cc1 (stereo not shown) [compound 201591, (5-(phenethylamino)-2-(4-vinylphenyl)-4,5,6,7-tetrahydro-2H-indazol-3-yl)(piperidin-1-yl)methanone] | 32 | 96 | 
CCCn1nc(C(=O)N2CCCCC2)c2c1CCC(NCC1CCOCC1)C2 (stereo not shown) [compound 200642, Piperidin-1-yl(1-propyl-5-(((tetrahydro-2H-pyran-4-yl)methyl)amino)-4,5,6,7-tetrahydro-1H-indazol-3-yl)methanone] | 710 |  | 
CCCn1nc(C(=O)N2CCCCC2)c2c1CCC(NCc1ccc(S(N)(=O)=O)cc1)C2 (stereo not shown) [compound 200652, 4-(((3-(Piperidine-1-carbonyl)-1-propyl-4,5,6,7-tetrahydro-1H-indazol-5-yl)amino)methyl)benzenesulfonamide] | 439 |  | 
CCCn1nc(C(=O)N2CCCCC2)c2c1CCC(N1CCc3ccccc3C1)C2 (stereo not shown) [compound 196338, (5-(3,4-dihydroisoquinolin-2(1H)-yl)-1-propyl-4,5,6,7-tetrahydro-1H-indazol-3-yl)(piperidin-1-yl)methanone] | 31 |  | activity against sigma-2 (in words) (sigma-2 receptor): retained sigma-2 activity; selectivity of sigma-2 ligands against sigma-1 (in words) (sigma-2 receptor): excellent selectivity
CCCn1nc(C(=O)N2CCCCC2)c2c1CCC(NCCCNC)C2 (stereo not shown) [compound 200820, (5-((3-(Methylamino)propyl)amino)-1-propyl-4,5,6,7-tetrahydro-1H-indazol-3-yl)(piperidin-1-yl)methanone] | 1990 |  | 
CCCn1nc(C(=O)N2CCCCC2)c2c1CCC(NCCNC(=N)N)C2 (stereo not shown) [compound 200829, 2-(2-((3-(Piperidine-1-carbonyl)-1-propyl-4,5,6,7-tetrahydro-1H-indazol-5-yl)amino)ethyl)guanidine] | 2160 |  | activity against sigma-2 (in words) (sigma-2 receptor): decreased activity
O=C(c1c2c(nn1-c1ccc(F)cc1)CCC(NCc1ccc(F)cc1)C2)N1CCCCC1 (stereo not shown) [compound 201117, (5-((4-fluorobenzyl)amino)-2-(4-fluorophenyl)-4,5,6,7-tetrahydro-2H-indazol-3-yl)(piperidin-1-yl)methanone] |  | 17 | selectivity of sigma-1 ligand against sigma-2 (sigma-1 receptor): over 500 ×
CCCn1nc(C(=O)N2CCCCC2)c2c1CCC(Nc1ccc(N3CCCCC3)cc1)C2 (stereo not shown) [compound 200637, Piperidin-1-yl(5-((4-(piperidin-1-yl)phenyl)amino)-1-propyl-4,5,6,7-tetrahydro-1H-indazol-3-yl)methanone] | 787 |  | 
CCCn1nc(C(=O)N(C)C)c2c1CCC(NCc1ccc(OC)cc1OC)C2 (stereo not shown) [compound 200874, 5-((2,4-dimethoxybenzyl)amino)-N,N-dimethyl-1-propyl-4,5,6,7-tetrahydro-1H-indazole-3-carboxamide] | 839 |  | 
CCCn1nc(C(=O)N2CCCCC2)c2c1CCC(NCc1ccc(N3CCCCC3)cc1)C2 (stereo not shown) [compound 200647, Piperidin-1-yl(5-((4-(piperidin-1-yl)benzyl)amino)-1-propyl-4,5,6,7-tetrahydro-1H-indazol-3-yl)methanone] | 169 |  | 
CCCn1nc(C(=O)N2CCCCC2)c2c1CCC(N1CCN(Cc3ccc(C#N)cc3)CC1)C2 (stereo not shown) [compound 200641, 4-((4-(3-(Piperidine-1-carbonyl)-1-propyl-4,5,6,7-tetrahydro-1H-indazol-5-yl)piperazin-1-yl)methyl)benzonitrile] | 1100 |  | 
CCCn1nc(C(=O)N2CCCCC2)c2c1CCC(N1CCC(c3ccncc3)CC1)C2 (stereo not shown) [compound 200639, Piperidin-1-yl(1-propyl-5-(4-(pyridin-4-yl)piperidin-1-yl)-4,5,6,7-tetrahydro-1H-indazol-3-yl)methanone] | 16 |  | selectivity of sigma-2 ligands against sigma-1 (in words) (sigma-2 receptor): excellent selectivity
CCCn1nc(C(=O)N2CCCCC2)c2c1CCC(NCCN1CCCCC1)C2 (stereo not shown) [compound 200640, Piperidin-1-yl(5-((2-(piperidin-1-yl)ethyl)amino)-1-propyl-4,5,6,7-tetrahydro-1H-indazol-3-yl)methanone] | 434 |  | 
CCCn1nc(C(=O)N2CCCCC2)c2c1CCC(NCCCN1CCCC1=O)C2 (stereo not shown) [compound 54120] | 673 |  | 
